Assays:
human skin fibroblasts = experiment: Cell viability by photomicrography, comparison with Cisplatinum and Docetaxol, fibroblasts; details: 10 μg and 100 μg, compared with 1 μg; 48 hours
[1] = test system: ovarian cancer cell line JC; details: 48 hours

`CC(=O)O[C@@]12CO[C@@H]1C[C@H](O)[C@@]1(C)C(=O)[C@H](O)C3=C(C)[C@@H](OC(=O)[C@H](O)[C@@H](NC(=O)OC(C)(C)C)c4ccccc4)C[C@@](O)([C@@H](OC(=O)c4ccccc4)[C@H]21)C3(C)C` [Docetaxol] was tested, and the “cell viability in fibroblasts” value (human skin fibroblasts) was “greater reduction in cell viability”, the “cytotoxicity in JC cells, treatments compared” value ([1]; 10 μg dosage level) was “less cytotoxic than either the Calomeria extract or Cisplatinum” and the “resistance of JC cells” value [1] was “more resistant”.
With `N.N.[Cl][Pt][Cl]` [Cisplatinum] the “cell viability in fibroblasts” value (human skin fibroblasts) was “greater reduction in cell viability”.
